Counter-ions that a name gives are not always drawn.
These molecules were tested against TrkA (Homo sapiens, UniProt P04629) (assay: TrkA LanthaScreen Eu Kinase Binding Assay). Details: averaged IC50; TR-FRET binding assay; read-out: TrkA Enzyme IC50.
Set-up: 6HIS tagged cytoplasmic domain from Invitrogen, Catalog No. PV3144; purchased Invitrogen PV3144
Description: TrkA binding activity was determined in a TrkA LanthaScreen™ Eu Kinase Binding Assay. 5 nM His-tagged recombinant human TrkA (6HIS tagged cytoplasmic domain from Invitrogen, Catalog No. PV3144) was incubated with 4 nM Alexa-Fluor® Tracer 236 (Invitrogen Cat. No. PV5592), 2 nM biotinylated anti-His (Invitrogen Cat. No. PV6090), and 2 nM europium-labeled Streptavidin (Invitrogen Cat. No. PV5899), in buffer (25 mM MOPS, pH 7.5, 5 mM MgCl2, 0.005% Triton X-100). Three fold serial dilutions of compounds of the invention in DMSO were added to a final percentage of 2% DMSO. After 60-minute incubation at 22° C., the reaction was measured using the EnVision mutlimode plate reader (PerkinElmer) via TR-FRET dual wavelength detection at […]. The percent of control was calculated using a ratiometric emission factor. The IC50 values were determined by fitting a four parameter model to the percent of control data.
Table A provides averaged IC50 values for compounds of the invention when tested in the assay of Example A, where A represents an averaged IC50 value<100 nM; B represents an averaged IC50 value from 100 to 1,000 nM; and C represents an averaged IC50 value from 1,000 to 10,000 nM.

TrkA, sequence (P04629 440-796 limits assumed): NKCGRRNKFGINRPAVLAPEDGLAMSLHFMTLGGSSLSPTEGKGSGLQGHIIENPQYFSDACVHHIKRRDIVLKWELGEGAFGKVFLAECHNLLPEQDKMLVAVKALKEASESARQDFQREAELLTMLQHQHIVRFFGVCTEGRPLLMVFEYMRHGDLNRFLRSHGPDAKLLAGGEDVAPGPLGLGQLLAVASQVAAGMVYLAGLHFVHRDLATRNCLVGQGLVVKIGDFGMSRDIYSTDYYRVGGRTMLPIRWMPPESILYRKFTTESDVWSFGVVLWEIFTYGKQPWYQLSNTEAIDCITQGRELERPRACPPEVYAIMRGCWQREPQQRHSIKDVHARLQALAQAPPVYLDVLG

Row | SMILES | IC50
1 | COCCCc1cc(Cl)c(Cl)cc1NC(=O)Nc1c(C)c(OC[C@H](O)CO)nn1-c1ccccc1 [Example 21, (R)-1-(4,5-dichloro-2-(3-methoxypropyl)phenyl)-3-(3-(2,3-dihydroxypropoxy)-4-methyl-1-phenyl-1H-pyrazol-5-yl)urea] | < 100 nM
2 | COCCCc1cc(Cl)c(Cl)cc1NC(=O)Nc1c(C)c(C(=O)NC2CCOCC2)nn1-c1ccccc1 [Example 36, 5-(3-(4,5-dichloro-2-(3-methoxypropyl)phenyl)ureido)-4-methyl-1-phenyl-N-(tetrahydro-2H-pyran-4-yl)-1H-pyrazole-3-carboxamide] | < 100 nM
3 | COCCCc1ccc(C(F)(F)F)cc1NC(=O)Nc1c(C)c(-c2ccc(=O)n(C)c2)nn1-c1ccccc1 [Example 25, 1-(2-(3-methoxypropyl)-5-(trifluoromethyl)phenyl)-3-(4-methyl-3-(1-methyl-6-oxo-1,6-dihydropyridin-3-yl)-1-phenyl-1H-pyrazol-5-yl)urea] | < 100 nM
4 | COCCOc1cc(Cl)c(Cl)cc1NC(=O)Nc1c(C)c(-c2cnn(C)c2)nn1-c1ccccc1 [Example 3, 1-(4,5-dichloro-2-(2-methoxyethoxy)phenyl)-3-(1′,4-dimethyl-1-phenyl-1H,1′H-[3,4′-bipyrazol]-5-yl)urea] | < 100 nM
5 | COCCCc1cc(Cl)c(Cl)cc1NC(=O)Nc1c(C)c(OCC2CCCN2)nn1-c1ccccc1 (stereo not drawn) [Example 43, 1-(4,5-dichloro-2-(3-methoxypropyl)phenyl)-3-(4-methyl-1-phenyl-3-(pyrrolidin-2-ylmethoxy)-1H-pyrazol-5-yl)urea hydrochloride] | < 100 nM
6 | COCCCc1cc(Cl)c(Cl)cc1NC(=O)Nc1c(C)c(OC[C@H]2CN(C)CCO2)nn1-c1ccccc1 [Example 32, (R)-1-(4,5-dichloro-2-(3-methoxypropyl)phenyl)-3-(4-methyl-3-((4-methylmorpholin-2-yl)methoxy)-1-phenyl-1H-pyrazol-5-yl)urea] | < 100 nM
